According to patent EP2578588A1 (World-Trade Import-Export Wtie, AG, priority 2010, dated 2011):

These compounds were tested against enzyme PDE-5 (Homo sapiens, UniProt O76074) (assay: Phosphodiesterase 5 (PDE-5) inhibition activity in in vitro tests). Details: read-out: CI5C.
Assay type: biochemical
Description: The following data illustrate the inhibiting activity of the compounds of the present invention on the enzyme PDE-5.

| Compound | IC50 [nM] |
| --- | --- |
| CCCc1nn(C)c2c(=O)[nH]c(-c3cc(S(=O)(=O)N4CCCN(CCC(=O)O)CC4)ccc3OCC)nc12 [Compound 7] | 1.2 |
| CCCc1nn(C)c2c(=O)[nH]c(-c3cc(S(=O)(=O)N4CCCN(CCCO)CC4)ccc3OCC)nc12 [Compound 4] | 1.8 |
| CCCc1nn(C)c2c(=O)[nH]c(-c3cc(S(=O)(=O)N4CCCNCC4)ccc3OCC)nc12 [Compound 1, 5-(5-(1,4-diazepan-1-ylsulfonyl)-2-ethoxiphenyl)-1-methyl-3-propyl-1H-pyrazolo[4,3-d]pyrimidin-7(6H)-one] | 4.2 |

The remaining lines, values ahead:

| IC50 [nM] | Compound |
| --- | --- |
| 3.5 | CCCc1nn(C)c2c(=O)[nH]c(-c3cc(S(=O)(=O)N4CCCN(C(=O)OC(C)(C)C)CC4)ccc3OCC)nc12 [Compound 5, tert-butyl 4-(4-ethoxy-3-(1-methyl-7-oxo-3-propyl-6,7-dihydro-1H-pyrazolo[4,3-d]pyrimidin-5-yl)phenylsulfonyl)-1,4-diazepane-1-carboxylate] |
| 6.4 | CCCc1nn(C)c2c(=O)[nH]c(-c3cc(S(=O)(=O)N4CCCN(C(C)=O)CC4)ccc3OCC)nc12 [Compound 2, 5-(5-(4-acetyl-1,4-diazepan-1-ylsulfonyl)-2-ethoxyphenyl)-1-methyl-3-propyl-1H-pyrazolo[4,3-d]pyrimidin-7(6H)-one] |
| 2.2 | CCCc1nn(C)c2c(=O)[nH]c(-c3cc(S(=O)(=O)N4CCCN(C)CC4)cnc3OCC)nc12 [Compound 6, 5-(2-ethoxy-5-(4-methyl-1,4-diazepan-1-ylsulfonyl)pyridin-3-yl)-1-methyl-3-propyl-1H-pyrazolo[4,3-d] pyrimidin-7(6H)-one] |
| 2.8 | CCCc1nn(C)c2c(=O)[nH]c(-c3cc(S(=O)(=O)N4CCCN(C)CC4)ccc3OCC)nc12 [Compound 3, 5-(2-ethoxy-5-(4-methyl-1,4-diazepan-1-ylsulfonyl)phenyl)-1-methyl-3-propyl-1H-pyrazolo[4,3-d]pyrimidin-7(6H)-one] |
